Residues, ends and D or L forms follow the SMILES beside them.
Compared with `C=CCOC(=O)CCC(C)(c1ccc(O)cc1)c1ccc(O)cc1`, `CCOC(=O)CCc1ccc(CCNS(=O)(=O)CCc2ccc(Cl)cc2)cc1` is lower in melting point: 83 to 85 °C for the first, 77 to 78 °C for the second.

First: Cc1noc(NS(=O)(=O)c2ccc(-c3cccs3)s2)c1Br
Second: Cc1[nH]c2ccccc2c1/C=C/C(=O)c1ccncc1
The melting point of the first is lower: 210 °C for the first, 268 to 272 °C for the second.

First: NNc1ncc(-c2ccccc2)cn1
Second: CNc1ncn(-c2ccccc2C)c(=O)n1
The melting point of the first is lower: 155 °C for the first, 192 °C for the second.

First: CCOC(Cc1ccc(OCCN(C)c2nc3ccccc3o2)cc1)C(=O)O (configuration not stated)
Second: CCOC(=O)c1cn(Cc2ccccc2)nc1OCc1ccc(OCc2nc(-c3ccco3)oc2C)cc1
The melting point of the first is higher: 109 to 110 °C for the first, 101 to 102 °C for the second.

`CCOC(=O)c1cnn2c(-c3cccc(C)n3)ccnc12` and `CNc1cccc(-c2ccnc3c(C(=O)c4ccccc4)cnn23)c1` cannot be ordered by melting point: 135 to 137 °C for the first, 134 to 136 °C for the second.

`C=CCc1ccccc1OC[C@@H](O)CNCCc1ccc(NC2CCN(C(=O)NCCCCCCCC)CC2)cc1` and `O=C(O)CCCCCCC(=NOCc1ccc(OCc2noc(-c3ccccc3)n2)cc1)c1ccccc1` cannot be ordered by melting point: 73 to 80 °C for the first, 76 to 77 °C for the second.

First: CCCn1ncnc1COc1nc2c(nnn2-c2ccccc2)c2ccccc12
Second: CCOc1ccccc1-c1cccc(-n2cnc(-c3nc(C)no3)c2)c1
The melting point of the first is higher: 154 to 156 °C for the first, 110 to 113 °C for the second.

First: c1ccc(C(Cn2cncn2)c2ccccc2)cc1
Second: O=C(Nc1c(C(O)(C(F)(F)F)C(F)(F)F)ccc2ccccc12)c1ccccc1
The melting point of the first is lower: 107 to 108 °C for the first, 190 to 192 °C for the second.

First: CCCc1cc(Cl)c2oc(Cc3ccccc3)c(C)c2c1O
Second: O=[N+]([O-])c1oc2ccc(Cc3nnn[nH]3)cc2c1-c1ccccc1
The melting point of the first is lower: 69 to 70 °C for the first, 245 to 247 °C for the second.

Compared with `FC(F)(F)c1onc(-c2ccc(Cl)o2)c1-c1ccccc1`, `O=C(Nc1ccccc1)Nc1ccnc(C(F)(F)F)c1` is higher in melting point: 55 to 57 °C for the first, 169 to 171 °C for the second.

First: C=CS(=O)(=O)C=CSc1ccc(C(C)(C)C)cc1
Second: C=Cc1cccc(C(OS(=O)(=O)c2ccc(Cl)cc2)(C(F)(F)F)C(F)(F)F)c1
The melting point of the first is lower: 62 to 64 °C for the first, 70 °C for the second.

Compared with `O=c1c2cc(F)c(N3CCCC3)nc2n(-c2cccc(C(F)(F)F)c2)c(=O)n1OCc1ccccc1`, `FC(F)(F)c1ccc(-c2cc(Oc3ccc4cccnc4c3)nnc2-c2ccccc2)cc1` is lower in melting point: > 250 °C for the first, 178 to 183 °C for the second.

First: O=C(O)c1cnc(C(=O)O)c2ccccc12
Second: CCOC(=O)c1ncn2c1[C@@H]1CCCN1C(=O)c1ccccc1-2
The melting point of the first is higher: 216 °C for the first, 196 to 197 °C for the second.

Compared with `CCCCCCCCCCCCCCC(O)(CCCCC(=O)O)CCCCC(=O)O`, `CCC(C)(O)CCCCc1cccc(CCc2ccc(O)c(CO)c2)c1` (configuration not stated) is higher in melting point: 79 to 80 °C for the first, 101 to 104 °C for the second.

Compared with `COc1cc(-c2nc(Nc3ccc(C)cc3)c3ccccc3n2)cc(OC)c1OC`, `COc1cc(Nc2nccc(Nc3ccc(OCC(=O)O)cc3)n2)cc(OC)c1OC` is lower in melting point: > 250 °C for the first, 159 °C for the second.

First: CCC(CC)Nc1cc(C)nc2c1CCC(=O)N2c1c(C)cc(C)cc1C
Second: CNC(=O)c1ccccc1Nc1nc(Nc2cc3c(cc2OC)CCN(CCOC)CC3)ncc1Cl
The melting point of the first is higher: 124 to 126 °C for the first, 109 to 112 °C for the second.

First: CC(C)(C)OCCCC1(O)c2ccccc2COc2ccccc21 (configuration not stated)
Second: CC(C)(C)OC(=O)Nc1ccc(-c2ccccc2F)cc1[N+](=O)[O-]
The melting point of the first is lower: 113 to 115 °C for the first, 131 to 133 °C for the second.

First: O=[N+]([O-])C(CO)(CO)CCc1ccc(Sc2cccc(OCc3ccccc3)c2)cc1Cl
Second: CCOC(=O)Nc1ccc(OCc2ccc(Cl)cc2)cc1[N+](=O)[O-]
The melting point of the first is lower: 69 to 70 °C for the first, 122 °C for the second.

First: N#Cc1cnn2c1NCCC2
Second: Cc1nc(C#N)ccc1N
The melting point of the first is higher: 206 to 207 °C for the first, 192 to 196 °C for the second.

First: Cc1ccccc1-n1c(-c2sc(NC(=O)c3ccccc3)nc2-c2ccccc2)nc2ccccc2c1=O
Second: Cc1ccc(Nc2ncc(C=Cc3cccnc3)c3ccccc23)cc1Br
The melting point of the first is higher: > 275 °C for the first, 91 °C for the second.

First: COc1ccc2c(c1)CCC(C1CCC(O)C1(C)CC(C)(C)O)C2 (configuration not stated)
Second: CC(C)(C)OC(=O)NN[C@@H]1c2cc(C#N)ccc2OC(C)(C)[C@H]1O (relative stereo)
The melting point of the first is lower: 123 to 125 °C for the first, 136 to 138 °C for the second.

First: C=CCNC(=O)Nc1nc2nc(NCCCN3CCN(C)CC3)ncc2cc1-c1c(Cl)cccc1Cl
Second: CCOCCn1c(N2CCCN(CCC3(c4cccc(Cl)c4)CCN(C(=O)c4cc(OC)c(OC)c(OC)c4)C3)CC2)nc2ccccc21 (configuration not stated)
The melting point of the first is higher: 104 to 108 °C for the first, 66 to 78 °C for the second.

First: Cc1ccc2nc(CCl)cn2c1
Second: CCC(C(=O)N(C)C)n1cc(C)c(-c2ccccc2)n1 (configuration not stated)
The melting point of the first is higher: 88 to 89.2 °C for the first, 86 to 88 °C for the second.

First: CN(C)C=Nc1nc(OC(=O)c2ccccc2)ncc1F
Second: Cc1cccc(Nc2n[nH]c(N=CN(C)C)c2C#N)c1
The melting point of the first is lower: 136 to 138 °C for the first, 260 to 261 °C for the second.

First: CN(Cc1ccccc1)Cc1cnc(NC(=O)C(Cc2ccc(F)cc2)c2ccc(S(C)(=O)=O)cc2)cn1 (configuration not stated)
Second: CC(C)C[C@H](NC(=O)OCc1ccccn1)C(=O)N[C@@H](C(C)C)[C@H](O)c1c(-c2ccccc2)c1=O
The melting point of the first is higher: 99 to 100 °C for the first, 52 to 59 °C for the second.

Compared with `[N-]=[N+]=NCc1cccnc1`, `CNc1nc(CSC)c(-c2ccncc2)s1` is higher in melting point: 40 to 43 °C for the first, 135 to 138 °C for the second.

First: Cc1c([N+](=O)[O-])ccc(Cl)c1C#N
Second: Cc1c([N+](=O)[O-])ccc(N)c1C(=O)O
The melting point of the first is lower: 87.5 to 89.5 °C for the first, 183 to 184 °C for the second.

Compared with `FC(F)c1cc(Cl)nc2c1cnn2C1CCCCO1` (configuration not stated), `CCN1CCCC1CNC(=O)c1nc(Cl)c(OC)nc1OC` (configuration not stated) is higher in melting point: 93 °C for the first, 100 to 101 °C for the second.

First: O=C1c2ccc3cccnc3c2N=CC1S(=O)(=O)CC(F)(F)F (configuration not stated)
Second: Cc1cc(Cl)cc(C(=O)NCC(C)O)c1NC(=O)c1cc(C(F)(F)F)nn1-c1ncccc1Cl (configuration not stated)
The melting point of the first is higher: 272 to 274 °C for the first, 193 to 197 °C for the second.

First: Nc1c(Br)cc2c(c1Br)C(C(Cl)(Cl)Cl)OC(C(Cl)(Cl)Cl)O2 (configuration not stated)
Second: CC1(C)c2c(ccc3cc(C#N)c(Cn4cncn4)cc23)OC1O (configuration not stated)
The melting point of the first is lower: 158 to 159 °C for the first, 219 to 222 °C for the second.

First: O=C1Nc2ccc(Br)cc2/C1=C/c1ccc[nH]1
Second: CCc1nc2cc(/C=C/C(=O)NO)ccc2c(=O)n1CCCc1ccccc1
The melting point of the first is higher: 267 to 268 °C for the first, 189 to 191 °C for the second.

Compared with `O=C1NNC(C=Cc2ccc([N+](=O)[O-])cc2)CS1` (configuration not stated), `CC1(C)CC(=O)C(C(=O)c2ccc(Cl)cc2[N+](=O)[O-])C(=O)N1` (configuration not stated) is lower in melting point: 231 to 240 °C for the first, 162 °C for the second.

Compared with `O=C(NC(CCO)c1ccccc1Br)c1c(F)cccc1F` (configuration not stated), `CCOC(=O)COc1cc(F)ccc1C(=O)NCc1cccc([N+](=O)[O-])c1` is higher in melting point: 63 to 65 °C for the first, 78 to 80 °C for the second.

First: COc1ccc(C2(/C=C/c3cccc(C#N)c3)CCC(=O)CC2)cc1OC1CCCC1
Second: CCN1CC(Cc2ccc(C(=O)O)cc2OC)c2cc(NC(=O)CC3CCCC3)ccc21 (configuration not stated)
The melting point of the first is lower: 116 to 117 °C for the first, 183 to 186 °C for the second.

First: COc1ccc(CNc2nc(N3CCC(C(=O)O)CC3)nc3sc(C(F)(F)F)cc23)cc1OC
Second: COC(=O)C(C)(OCc1ccc2cc(OC)ccc2c1)C(F)(F)F (configuration not stated)
The melting point of the first is higher: 203 °C for the first, 60 to 62 °C for the second.

First: CC1(C(=O)NCCc2ccc(CCC(=O)O)cc2)C=CN=N1 (configuration not stated)
Second: COCCc1ccc(OCC(O)C(C)(C)[N+](=O)[O-])cc1 (configuration not stated)
The melting point of the first is higher: 202 to 205 °C for the first, 92 to 94 °C for the second.

Compared with `CC(=O)Oc1ccc(NC(C)=C2C(=O)OC(=O)C(C(C)=O)=C2O)cc1`, `CCOC(=O)C1(NC(C)=O)CC2c3cc(C)ccc3Oc3ccccc3N2C1=O` (configuration not stated) is lower in melting point: 199 to 201 °C for the first, 104 to 108 °C for the second.

First: CCCC1(CCC)CCC2(CC1)CC(=O)N(CCC#N)C2=O
Second: CCN1C(=O)CC(C)(C)c2ccc(C(=O)O)cc21
The melting point of the first is lower: 117 to 118 °C for the first, 202 to 204 °C for the second.

First: CC(C)Nc1nc(C(=O)O)cn1C
Second: CSCC(=O)Nc1cc(SCC(C)C)ccc1[N+](=O)[O-]
The melting point of the first is higher: 247 °C for the first, 73 to 74 °C for the second.

Compared with `NC(=O)N[C@@H]1CCC[C@@H](O)c2sccc21` (relative stereo), `N#Cc1c(N)sc2ccccc2c1=O` is higher in melting point: 169 to 172 °C for the first, 295 to 299 °C for the second.

First: CCCc1nn(C)c2c(=O)n(CCCc3cccc(OC(C)(CC)C(=O)O)c3)c(C)nc12 (configuration not stated)
Second: Cn1c(COc2ccc(CC3SC(=O)NC3=O)cc2)nc2cncnc21 (configuration not stated)
The melting point of the first is lower: 136 to 138 °C for the first, 244 to 246 °C for the second.

Compared with `CCOC(=S)Nc1ccccc1NC(=S)NC(=O)OC`, `CC(=O)Nc1cccc(C(=O)Nc2cc(NC(=O)c3cccc(N(C)C)c3)ccc2C)c1` is higher in melting point: 172 °C for the first, 178 to 179 °C for the second.

Compared with `CC(C)CC(NC(=O)C(Cc1ccccc1)NC(=O)CNC(=O)C(C)NC(=O)C(N)Cc1ccc(O)cc1)C(=O)NC(CCCNC(=N)N)C(=O)O` (configuration not stated) (H-YAGFLR-OH; configuration not given here), `O=C(COc1ccc(-c2c(Cl)c(CN3C(=O)CCC3=O)nc3sc4c(c23)CCS(=O)C4)cc1)NCc1ccccc1` (configuration not stated) is higher in melting point: 173 to 176 °C for the first, 220 to 221 °C for the second.

First: CCC[C@H]1C(=O)N(S(=O)(=O)c2cccc3ccccc23)[C@H]2CCN(S(C)(=O)=O)[C@H]12 (relative stereo)
Second: CCCNCc1cc2ccc(NC(=O)c3ccc(OC[C@@H]4CCCO4)cc3)c(C)c2[nH]1
The melting point of the first is higher: 185 to 187 °C for the first, 117 to 119 °C for the second.

Compared with `Cc1nc(C)c(N2N=C(c3ccc([N+](=O)[O-])cc3)c3cc4c(cc3CC2C)OCO4)o1` (configuration not stated), `C/C=C/c1nnc(N2N=C(c3ccc([N+](=O)[O-])c(C)c3)c3cc4c(cc3C[C@H]2C)OCO4)s1` is higher in melting point: 76 to 78 °C for the first, 232 to 237 °C for the second.

First: CCNC(=S)n1nc(Oc2ncc(C(F)(F)F)cc2Cl)cc1C
Second: CCCC(=O)Nc1n[nH]c2cc(C(F)(F)F)ccc12
The melting point of the first is lower: 74 to 75 °C for the first, 200 °C for the second.

First: CC1(C)[C@H](Cc2noc(C3CCCCC3)n2)CC[C@]1(C)NCC(=O)N1C[C@@H](F)C[C@H]1C#N
Second: OC1CSC(Oc2ccc(-c3ccnc(F)c3)nc2Cl)C(O)C1O (configuration not stated)
The melting point of the first is lower: 152 to 153 °C for the first, 195 °C for the second.

First: CSC(SC)=C(C(=O)c1ccc(C(F)(F)F)cc1S(C)(=O)=O)C(=O)C1CC1
Second: CCOC(=O)COc1ccc(N(C)Cc2ccc(-c3ccc(C(F)(F)F)cc3)nc2C)cc1CCCOC
The melting point of the first is higher: 137 to 139 °C for the first, 72 to 73 °C for the second.

`CCOC(=O)c1c(N2CCN(C(=O)c3cccs3)CC2)c2cscc2[nH]c1=O` gave a melting point of 282 °C.

From a melting point compilation (Tetko et al.; mined from patent text by program, amines drawn as free bases though some values may be those of a salt)
